The source of these data is patent US12071408B2, “Multi-targeted tyrosine kinase inhibitors effective in antitumor uses” (Shanghai AB PharmaTech Ltd., priority 2021, dated 2024).

Assay [1] deals with bladder cancer cell line (RT112/84). Description: Tumor cell proliferation inhibition (CTG, 72 h). It is filed as cell-based. Conditions: Homo sapiens; RT112/84 cells, class; read-out: RT112/84 range of activity (IC50).
The next assay has as its target FGFR4 (Homo sapiens (Human), UniProt P22455). In words: Kinase inhibition, Mobility-Shift Assay. It is filed as biochemical. Conditions: class; read-out: FGFR4 range of activity effects (IC50).
The target in a further assay is FGFR2 (Homo sapiens (Human), UniProt P21802). In words: Kinase inhibition, Mobility-Shift Assay. In kind it is biochemical. Conditions: class; read-out: FGFR2 range of activity effects (IC50).
FGFR2, sequence (P21802 22-821): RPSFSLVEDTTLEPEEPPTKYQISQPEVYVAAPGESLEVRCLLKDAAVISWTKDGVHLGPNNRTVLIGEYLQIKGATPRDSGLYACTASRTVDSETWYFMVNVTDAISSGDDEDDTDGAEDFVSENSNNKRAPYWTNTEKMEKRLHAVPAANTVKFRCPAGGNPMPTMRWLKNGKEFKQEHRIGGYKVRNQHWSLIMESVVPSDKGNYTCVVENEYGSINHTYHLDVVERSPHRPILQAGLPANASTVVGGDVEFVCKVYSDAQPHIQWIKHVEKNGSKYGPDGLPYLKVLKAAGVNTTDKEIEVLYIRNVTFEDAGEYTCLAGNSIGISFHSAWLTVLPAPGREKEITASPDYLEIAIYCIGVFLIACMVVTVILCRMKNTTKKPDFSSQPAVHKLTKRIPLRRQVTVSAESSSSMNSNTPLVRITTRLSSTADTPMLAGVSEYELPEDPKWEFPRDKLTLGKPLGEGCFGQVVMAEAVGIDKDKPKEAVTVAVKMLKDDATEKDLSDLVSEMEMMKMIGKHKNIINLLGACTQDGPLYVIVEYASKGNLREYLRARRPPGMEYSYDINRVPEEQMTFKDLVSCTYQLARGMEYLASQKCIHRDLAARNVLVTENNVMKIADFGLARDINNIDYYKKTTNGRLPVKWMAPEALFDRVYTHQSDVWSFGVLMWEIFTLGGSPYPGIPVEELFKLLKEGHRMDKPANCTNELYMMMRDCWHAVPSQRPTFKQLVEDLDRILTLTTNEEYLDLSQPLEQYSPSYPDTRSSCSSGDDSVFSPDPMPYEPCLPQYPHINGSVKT
The next assay deals with C-MET (Homo sapiens (Human), UniProt P08581). In words: Kinase inhibition, Mobility-Shift Assay. It is filed as biochemical. Conditions: class; read-out: C-MET range of activity (IC50).
Assay [2] has as its system thyroid cancer cell line (TT). In words: Tumor cell proliferation inhibition (CTG, 72 h). In kind it is cell-based. To be noted: Homo sapiens; TT cells, class; read-out: TT range of activity (IC50).
The next assay concerns the target VEGFR-2 (KDR) (Homo sapiens (Human), UniProt P35968). Description: Kinase inhibition, Mobility-Shift Assay. It is filed as biochemical. To be noted: class; read-out: KDR activity effect range (IC50).
Assay [3] concerns leukemia cell line (K562). In words: Tumor cell proliferation inhibition (CTG, 72 h). It is filed as cell-based. Conditions: Homo sapiens; K562 cells, class; read-out: K562 activity effect range (IC50).
Assay [4] has as its system cervical cancer cell line (Hela). Description: Tumor cell proliferation inhibition (CTG, 72 h). It is filed as cell-based. Conditions: Homo sapiens; Hela cells, class; read-out: Hela activity effect range (IC50).
Assay [5] deals with hepatocellular carcinoma cell line (Hep3B 2.1-7). In words: Tumor cell proliferation inhibition (CTG, 72 h). It is filed as cell-based. Conditions: Homo sapiens; Hep3B 2.1-7 cells, class; read-out: Hep3B 2.1-7 range of activity (IC50).
In the next assay the target is EGFR (Homo sapiens (Human), UniProt P00533). In words: Kinase inhibition, Mobility-Shift Assay. It is filed as biochemical. Conditions: class; read-out: EGFR range of activity (IC50).
EGFR, sequence (P00533 25-1210): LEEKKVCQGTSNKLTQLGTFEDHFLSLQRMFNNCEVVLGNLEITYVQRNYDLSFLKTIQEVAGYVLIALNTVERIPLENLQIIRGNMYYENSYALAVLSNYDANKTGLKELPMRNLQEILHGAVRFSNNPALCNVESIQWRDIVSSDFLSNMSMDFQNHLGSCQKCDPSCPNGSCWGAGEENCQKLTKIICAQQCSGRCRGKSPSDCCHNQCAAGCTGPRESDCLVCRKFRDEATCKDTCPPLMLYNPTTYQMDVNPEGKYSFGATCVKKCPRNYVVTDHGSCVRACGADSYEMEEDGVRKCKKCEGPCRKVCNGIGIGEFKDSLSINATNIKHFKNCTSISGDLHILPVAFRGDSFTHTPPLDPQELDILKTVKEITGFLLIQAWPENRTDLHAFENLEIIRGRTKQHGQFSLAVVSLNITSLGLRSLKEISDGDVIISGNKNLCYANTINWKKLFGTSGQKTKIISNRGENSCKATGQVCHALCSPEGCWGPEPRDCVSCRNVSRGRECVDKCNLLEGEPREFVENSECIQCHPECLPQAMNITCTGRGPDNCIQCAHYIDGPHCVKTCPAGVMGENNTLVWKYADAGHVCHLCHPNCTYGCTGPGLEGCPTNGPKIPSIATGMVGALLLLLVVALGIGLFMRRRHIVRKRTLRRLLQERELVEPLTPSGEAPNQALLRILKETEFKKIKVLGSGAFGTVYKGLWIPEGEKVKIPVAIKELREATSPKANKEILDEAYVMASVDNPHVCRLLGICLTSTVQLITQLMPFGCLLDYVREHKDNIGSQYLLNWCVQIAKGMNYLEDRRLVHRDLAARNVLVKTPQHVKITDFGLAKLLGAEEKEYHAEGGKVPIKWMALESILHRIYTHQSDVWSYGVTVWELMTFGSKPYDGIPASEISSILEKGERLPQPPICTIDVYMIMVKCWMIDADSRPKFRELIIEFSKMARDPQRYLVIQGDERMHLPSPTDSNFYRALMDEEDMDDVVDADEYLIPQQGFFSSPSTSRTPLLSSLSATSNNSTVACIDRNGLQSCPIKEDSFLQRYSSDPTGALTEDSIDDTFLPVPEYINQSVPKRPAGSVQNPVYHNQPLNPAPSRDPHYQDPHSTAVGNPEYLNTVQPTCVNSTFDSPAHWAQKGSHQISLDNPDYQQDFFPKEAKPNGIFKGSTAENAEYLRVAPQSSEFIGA

A value given as a limit tells only on which side of the number the result lay.

FGFR4, sequence (P22455 22-802): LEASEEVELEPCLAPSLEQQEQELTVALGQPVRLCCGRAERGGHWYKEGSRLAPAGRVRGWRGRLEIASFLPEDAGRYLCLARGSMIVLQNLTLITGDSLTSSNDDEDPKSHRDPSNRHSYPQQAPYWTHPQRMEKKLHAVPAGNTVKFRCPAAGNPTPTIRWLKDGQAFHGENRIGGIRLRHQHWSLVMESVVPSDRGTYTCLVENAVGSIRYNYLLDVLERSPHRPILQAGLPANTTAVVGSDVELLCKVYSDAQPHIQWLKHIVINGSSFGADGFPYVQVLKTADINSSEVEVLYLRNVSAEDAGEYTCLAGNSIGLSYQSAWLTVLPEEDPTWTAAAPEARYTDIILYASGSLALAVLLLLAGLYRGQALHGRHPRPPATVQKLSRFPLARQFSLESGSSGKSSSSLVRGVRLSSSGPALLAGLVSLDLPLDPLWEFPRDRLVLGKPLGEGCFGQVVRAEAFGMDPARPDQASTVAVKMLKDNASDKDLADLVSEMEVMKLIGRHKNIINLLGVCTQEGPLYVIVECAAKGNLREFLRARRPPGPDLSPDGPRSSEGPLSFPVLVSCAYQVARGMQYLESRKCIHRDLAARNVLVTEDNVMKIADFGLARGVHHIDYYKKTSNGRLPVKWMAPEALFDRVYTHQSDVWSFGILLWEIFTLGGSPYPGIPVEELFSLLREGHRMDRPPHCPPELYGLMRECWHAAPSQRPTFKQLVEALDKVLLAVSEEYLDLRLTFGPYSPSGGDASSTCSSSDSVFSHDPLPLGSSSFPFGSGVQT
VEGFR-2 (KDR), sequence (P35968 20-1356): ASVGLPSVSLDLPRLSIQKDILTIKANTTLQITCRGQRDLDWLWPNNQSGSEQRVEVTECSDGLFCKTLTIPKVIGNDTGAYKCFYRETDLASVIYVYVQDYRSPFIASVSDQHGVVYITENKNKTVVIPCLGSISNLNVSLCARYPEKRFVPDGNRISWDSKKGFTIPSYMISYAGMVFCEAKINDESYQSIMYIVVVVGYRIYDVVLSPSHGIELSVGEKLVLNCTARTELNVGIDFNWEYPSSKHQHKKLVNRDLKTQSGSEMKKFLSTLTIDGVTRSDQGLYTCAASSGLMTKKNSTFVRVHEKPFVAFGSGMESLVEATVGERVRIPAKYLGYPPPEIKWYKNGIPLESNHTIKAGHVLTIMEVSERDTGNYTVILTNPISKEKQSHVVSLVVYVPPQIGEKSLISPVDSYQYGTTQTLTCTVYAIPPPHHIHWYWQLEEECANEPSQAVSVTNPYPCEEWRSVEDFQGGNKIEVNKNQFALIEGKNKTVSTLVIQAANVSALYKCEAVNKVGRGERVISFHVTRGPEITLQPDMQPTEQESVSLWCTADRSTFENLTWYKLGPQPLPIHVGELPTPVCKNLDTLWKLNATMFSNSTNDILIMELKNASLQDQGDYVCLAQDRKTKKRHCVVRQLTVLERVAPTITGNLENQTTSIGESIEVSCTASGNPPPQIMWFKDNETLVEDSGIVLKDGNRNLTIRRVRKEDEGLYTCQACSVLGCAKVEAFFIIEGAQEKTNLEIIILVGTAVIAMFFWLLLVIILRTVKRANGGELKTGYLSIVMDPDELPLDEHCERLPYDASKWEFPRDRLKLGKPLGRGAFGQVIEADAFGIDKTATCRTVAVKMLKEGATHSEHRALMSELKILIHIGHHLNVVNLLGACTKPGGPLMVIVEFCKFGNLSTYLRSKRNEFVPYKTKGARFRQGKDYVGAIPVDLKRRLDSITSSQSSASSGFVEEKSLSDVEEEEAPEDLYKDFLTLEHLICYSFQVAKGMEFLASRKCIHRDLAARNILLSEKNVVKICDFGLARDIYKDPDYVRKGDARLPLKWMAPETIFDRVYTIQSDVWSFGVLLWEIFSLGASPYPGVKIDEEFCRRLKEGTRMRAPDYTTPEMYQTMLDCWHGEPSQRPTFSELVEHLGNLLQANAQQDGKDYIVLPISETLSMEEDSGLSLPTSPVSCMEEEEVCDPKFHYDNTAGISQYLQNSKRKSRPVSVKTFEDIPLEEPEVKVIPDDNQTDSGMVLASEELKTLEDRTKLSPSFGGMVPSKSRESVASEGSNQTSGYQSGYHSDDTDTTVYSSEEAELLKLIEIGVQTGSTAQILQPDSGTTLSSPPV

For `COc1cc2nccc(Oc3c(F)c(N(C)C)c(NC(=O)NC4CC4)c(N(C)C)c3F)c2cc1C(N)=O` [III-52], the IC50 in [1] is greater than 1 µM; at FGFR4 it was greater than 0.1 µM; on FGFR2, greater than 0.1 µM; on C-MET, greater than 0.1 µM; in [2], greater than 10 µM; on VEGFR-2 (KDR), greater than 0.01 µM. Besides, the IC50 in assay [3] is greater than 10 µM; in [4], greater than 10 µM; in assay [5], greater than 5 µM; on EGFR, greater than 0.1 µM.

Regarding `COc1cc2nccc(Oc3c(F)cc(NC(=O)N4CC[C@H](O)C4)c(Cl)c3F)c2cc1C(N)=O` [III-31], the IC50 in assay [1] was greater than 1 µM; on FGFR4, greater than 0.1 µM; on FGFR2 it was greater than 0.1 µM; at C-MET, greater than 0.1 µM; in [2], greater than 10 µM; at VEGFR-2 (KDR) it was greater than 0.01 µM. The IC50 in [3] is greater than 10 µM; in [4], greater than 10 µM; in assay [5], greater than 5 µM; on EGFR it was greater than 0.1 µM.

On to `COc1cc2nccc(Oc3c(F)cc(NC(=O)NC4CC4(F)F)c(Cl)c3F)c2cc1C(N)=O` (centres unmarked) [III-24], for which the IC50 in assay [1] is greater than 1 µM; at FGFR4, greater than 0.1 µM; on FGFR2, greater than 0.1 µM; at C-MET it was greater than 0.1 µM; in assay [2], greater than 10 µM; on VEGFR-2 (KDR), greater than 0.01 µM. Also, the IC50 was greater than 10 µM in [3], greater than 10 µM in [4], greater than 5 µM in assay [5] and greater than 0.1 µM at EGFR.

Consider `C=CC1CC1(NC(=O)Nc1cc(F)c(Oc2ccnc3cc(OC)c(C(N)=O)cc23)c(F)c1Cl)C(=O)NC1CC1` (centres unmarked) [III-37], for which the IC50 in assay [1] was greater than 1 µM; at FGFR4, greater than 0.1 µM; on FGFR2, greater than 0.1 µM; at C-MET it was greater than 0.1 µM; in [2], greater than 10 µM; on VEGFR-2 (KDR), greater than 0.01 µM. For the same compound, the IC50 in assay [3] is greater than 10 µM; in assay [4], greater than 10 µM; in assay [5], greater than 5 µM; on EGFR it was greater than 0.1 µM.

For the compound `COc1cc2nccc(Oc3c(F)cc(NC(=O)NC4CCC4)c(Cl)c3F)c2cc1C(N)=O` [III-26], the IC50 in [1] is greater than 1 µM; on FGFR4, greater than 0.1 µM; at FGFR2, greater than 0.1 µM; on C-MET it was greater than 0.1 µM; in [2] it was greater than 10 µM; at VEGFR-2 (KDR) it was greater than 0.01 µM. Also, the IC50 was greater than 10 µM in assay [3], greater than 10 µM in assay [4], greater than 5 µM in assay [5] and greater than 0.1 µM at EGFR.

Regarding `COc1cc2nccc(Oc3c(F)cc(NC(=O)N[C@H](C)CO)c(Cl)c3F)c2cc1C(N)=O` [III-08], the IC50 in assay [1] was greater than 1 µM; on FGFR4, greater than 0.1 µM; on FGFR2, greater than 0.1 µM; on C-MET, greater than 0.1 µM; in [2] it was greater than 10 µM; at VEGFR-2 (KDR), greater than 0.01 µM. Further, the IC50 in [3] was greater than 10 µM; in assay [4], greater than 10 µM; in assay [5], greater than 5 µM; on EGFR it was greater than 0.1 µM.

As for `COc1cc2nccc(Oc3c(F)cc(NC(=O)NC(CO)CO)c(Cl)c3F)c2cc1C(N)=O` [III-13], the IC50 in assay [1] was greater than 1 µM; on FGFR4, greater than 0.1 µM; on FGFR2, greater than 0.1 µM; on C-MET it was greater than 0.1 µM; in assay [2], greater than 10 µM; on VEGFR-2 (KDR) it was greater than 0.01 µM. In addition, the IC50 is greater than 10 µM in assay [3], greater than 10 µM in assay [4], greater than 5 µM in assay [5] and greater than 0.1 µM at EGFR.

As for `COc1cc2nccc(Oc3c(F)c(F)c(NC(=O)NC4CC4)c(OC)c3F)c2cc1C(N)=O` [III-51], the IC50 in assay [1] is greater than 1 µM; at FGFR4, greater than 0.1 µM; at FGFR2 it was greater than 0.1 µM; on C-MET it was greater than 0.1 µM; in [2] it was greater than 10 µM; on VEGFR-2 (KDR), greater than 0.01 µM. The IC50 is greater than 10 µM in assay [3], greater than 10 µM in [4], greater than 5 µM in [5] and greater than 0.1 µM at EGFR.
